Experimental data: ChEMBL document CHEMBL1201862, “PubChem BioAssay data set” (2004)
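Each compound was tested at five concentrations against cells in 96-well plates for 48 hours. At the GI50, growth is halved.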 The source made the active and inactive calls. Cut-off read from the data, not from the text of the source: active = GI50 up to about 1.1 µM and inactive = higher.

Key:
Experiment in all cases: DTP human tumour cell line panel, 48 h
786-0 = test system: 786-0
COLO 205 = test system: COLO 205
EKVX = test system: EKVX
HCC 2998 = test system: HCC 2998
HL-60 = test system: HL-60
HOP-62 = test system: HOP-62
HT-29 = test system: HT-29
K562 = test system: K562
KM12 = test system: KM12
LOX IMVI = test system: LOX IMVI
MOLT-4 = test system: MOLT-4
NCI-H460 = test system: NCI-H460
NCI-H522 = test system: NCI-H522
OVCAR-4 = test system: OVCAR-4
SF-539 = test system: SF-539
SK-MEL-2 = test system: SK-MEL-2
UO-31 = test system: UO-31
HOP-92 = test system: HOP-92

Measured: GI50

N#CCCN(CCC#N)c1ccc(/C=C(/NC(=O)c2cc([N+](=O)[O-])ccc2Cl)C(=O)N=[N+]=[N-])cc1
inactive: 786-0 > 100 µM | COLO 205 > 100 µM | EKVX > 100 µM | HCC 2998 > 100 µM | HL-60 > 100 µM | HOP-62 > 100 µM | HT-29 > 100 µM | K562 > 100 µM | KM12 > 100 µM | LOX IMVI > 100 µM | MOLT-4 > 100 µM | NCI-H460 > 100 µM | NCI-H522 > 100 µM | OVCAR-4 > 100 µM | SF-539 > 100 µM | SK-MEL-2 > 100 µM | UO-31 > 100 µM

O=S(=O)(c1ccccc1)C1CN2OC1(S(=O)(=O)c1ccccc1)CC21CCCCC1 (stereo not given)
inactive: 786-0 > 100 µM | COLO 205 > 100 µM | EKVX > 100 µM | HCC 2998 > 100 µM | HL-60 44.9 µM | HOP-62 > 100 µM | HT-29 > 100 µM | K562 85.9 µM | KM12 > 100 µM | LOX IMVI > 100 µM | MOLT-4 40.7 µM | NCI-H460 92.5 µM | NCI-H522 51.5 µM | OVCAR-4 37.1 µM | SF-539 > 100 µM | SK-MEL-2 > 100 µM | UO-31 42.9 µM

c1ccc(CN(Cn2cccn2)Cn2cccn2)nc1
inactive: 786-0 > 100 µM | COLO 205 > 100 µM | EKVX > 100 µM | HL-60 47.8 µM | HOP-62 > 100 µM | HOP-92 > 100 µM | K562 > 100 µM | KM12 > 100 µM | LOX IMVI > 100 µM | MOLT-4 > 100 µM | NCI-H460 > 100 µM | NCI-H522 > 100 µM | OVCAR-4 > 100 µM | SK-MEL-2 > 100 µM | UO-31 > 100 µM

COc1cc(/C=C(\C#N)C(=O)c2ccccc2)ccc1O
inactive: 786-0 > 100 µM | COLO 205 > 100 µM | EKVX > 100 µM | HCC 2998 > 100 µM | HL-60 46.6 µM | HOP-62 > 100 µM | HT-29 > 100 µM | K562 > 100 µM | KM12 > 100 µM | LOX IMVI > 100 µM | MOLT-4 > 100 µM | NCI-H460 > 100 µM | NCI-H522 > 100 µM | OVCAR-4 > 100 µM | SF-539 > 100 µM | SK-MEL-2 > 100 µM | UO-31 > 100 µM

O=C1OC(c2ccc(Cl)c3ccccc23)c2ccccc21 (stereo not given)
inactive: 786-0 67.6 µM | COLO 205 > 100 µM | EKVX > 100 µM | HCC 2998 91.2 µM | HL-60 > 100 µM | HOP-62 > 100 µM | HOP-92 > 100 µM | HT-29 55.3 µM | K562 55.7 µM | KM12 > 100 µM | MOLT-4 77.6 µM | NCI-H460 > 100 µM | NCI-H522 > 100 µM | OVCAR-4 63.5 µM | SF-539 > 100 µM | SK-MEL-2 > 100 µM | UO-31 > 100 µM

O=C(Nc1cccc([N+](=O)[O-])c1)/C(=N\NC(=O)c1ccncc1)c1nc2ccc([N+](=O)[O-])cc2nc1O
inactive: 786-0 > 100 µM | COLO 205 > 100 µM | EKVX 38 µM | HCC 2998 35.4 µM | HOP-62 70 µM | HOP-92 12.4 µM | HT-29 74.1 µM | K562 21.5 µM | KM12 42.2 µM | LOX IMVI 27.6 µM | MOLT-4 46.9 µM | NCI-H460 54 µM | NCI-H522 8.59 µM | OVCAR-4 > 100 µM | SF-539 32.8 µM | SK-MEL-2 > 100 µM | UO-31 21.9 µM

N#CC(C(=O)/C(=N/NC(=O)c1ccccc1O)C(C#N)c1ccc(Cl)cc1)c1ccc(Cl)cc1 (stereo not given)
inactive: 786-0 15.9 µM | COLO 205 29.9 µM | EKVX 22.4 µM | HL-60 15.5 µM | HOP-62 20.7 µM | HT-29 12.1 µM | K562 19.2 µM | KM12 15.8 µM | LOX IMVI 14.3 µM | MOLT-4 > 10 µM | NCI-H460 15.7 µM | NCI-H522 > 10 µM | OVCAR-4 18.1 µM | SF-539 17.3 µM | SK-MEL-2 16.5 µM | UO-31 17.1 µM

Cc1[nH]c(=O)nc(N/N=C/c2ccc(O)cc2)c1C(=O)Nc1ccc(Cl)cc1
inactive: 786-0 > 100 µM | COLO 205 > 100 µM | EKVX > 100 µM | HCC 2998 > 100 µM | HL-60 > 100 µM | HOP-62 > 100 µM | K562 > 100 µM | KM12 > 100 µM | MOLT-4 > 100 µM | NCI-H460 > 100 µM | NCI-H522 > 100 µM | OVCAR-4 > 100 µM | SF-539 > 100 µM | SK-MEL-2 > 100 µM | UO-31 > 100 µM

N#CC(C(=O)/C(=N\NC(N)=O)C(C#N)c1ccccc1)c1ccccc1 (stereo not given)
inactive: 786-0 > 100 µM | COLO 205 > 100 µM | EKVX > 100 µM | HCC 2998 > 100 µM | HL-60 > 100 µM | HOP-62 > 100 µM | HOP-92 > 100 µM | HT-29 > 100 µM | K562 > 100 µM | KM12 > 100 µM | MOLT-4 > 100 µM | NCI-H460 > 100 µM | NCI-H522 > 100 µM | OVCAR-4 > 100 µM | SF-539 > 100 µM | SK-MEL-2 > 100 µM | UO-31 > 100 µM

C/C1=N\[N-]C(=O)c2ccccc2C(=O)N/N=C(\C)c2cccc1n2.O=[N+]([O-])[O-].[Zn+2]
inactive: 786-0 > 100 µM | COLO 205 > 100 µM | EKVX > 100 µM | HCC 2998 > 100 µM | HOP-62 > 100 µM | HT-29 > 100 µM | K562 > 100 µM | KM12 > 100 µM | MOLT-4 > 100 µM | NCI-H460 > 100 µM | NCI-H522 > 100 µM | OVCAR-4 > 100 µM | SF-539 > 100 µM | SK-MEL-2 > 100 µM | UO-31 > 100 µM

CCN(CC)CCNc1ccc2nnn3c4ccc(C)cc4c(=O)c1c23
inactive: 786-0 5.66 µM | COLO 205 5.87 µM | HL-60 3.9 µM | HOP-62 14.9 µM | HOP-92 6.55 µM | HT-29 4.14 µM | K562 8.24 µM | KM12 4.56 µM | LOX IMVI 3.61 µM | MOLT-4 3.07 µM | NCI-H460 3.85 µM | NCI-H522 7.67 µM | OVCAR-4 12.1 µM | SF-539 6.14 µM | SK-MEL-2 13.7 µM | UO-31 10.2 µM

NC(=O)c1cccc([N+](=O)[O-])c1
inactive: 786-0 > 100 µM | COLO 205 > 100 µM | EKVX > 100 µM | HCC 2998 > 100 µM | HL-60 > 100 µM | HOP-62 > 100 µM | HT-29 > 100 µM | K562 > 100 µM | KM12 > 100 µM | LOX IMVI > 100 µM | MOLT-4 > 100 µM | NCI-H460 > 100 µM | NCI-H522 > 100 µM | SF-539 > 100 µM | SK-MEL-2 > 100 µM | UO-31 > 100 µM
